Data reported in patent US20180161300A1, “CITRIN INHIBITORS FOR THE TREATMENT OF CANCER” (Yeda Research And Development Co. Ltd., priority 2015, published 2018).

Key:
Citrin [1] = assay: Western blot of citrin protein after shCitrin; assay type: cell-based, human; details: MDA-MB-435, Dox induction
Method: Cells were lysed in RIPA (Sigma-Aldrich) and 0.5% protease inhibitor cocktail (Calbiochem). After centrifugation, the supernatant was collected and protein content was evaluated by the Bradford assay. One hundred micrograms from each sample under reducing conditions were loaded into each lane and separated by electrophoresis on a 10% SDS polyacrylamide gel. After electrophoresis, proteins were transferred to Immobilon transfer membranes (Tamar). Non-specific binding was blocked by incubation with TBST (10 mM Tris-HCl (pH 8.0), 150 mM NaCl, 0.1% Tween 20), containing 3% albumin from bovine serum for 1 hour at 25° C. Membranes were subsequently incubated with antibodies against Citrin (1:200, H00010165-M01, Abnova), ASS1 (1:500, sc-99178, Santa Cruz Biotechnology) and p97 (1:10,000, PA5-22257, Thermo Scientific). Antibody was detected using peroxidase-conjugated AffiniPure goat anti-rabbit IgG or goat anti-mouse IgG (Jackson ImmunoResearch) and enhanced chemiluminescence Western blotting detection reagents (EZ-Gel, Biological Industries). Gels were quantified by Gel Doc XR+(BioRad) and analysed by ImageLab 4.1 software (BioRad). The band area was calculated by the intensity of the band. The obtained value was then divided by the value obtained from the loading control. […]

Citrin [2] = target: T1, Citrin (Homo sapiens, UniProt Q9UJS0); assay: Metabolomics analysis for potential citrin inhibitors (15N-alpha-glutamine labelling, GC-MS); assay type: cell-based; set-up: endogenous in cells; host or cells: U2OS osteosarcoma cells; details: U2OS, 4 mM L-Glutamine (ALPHA-15N), compound 10-100 μM, 24 hours
T1 sequence (Q9UJS0 1-675): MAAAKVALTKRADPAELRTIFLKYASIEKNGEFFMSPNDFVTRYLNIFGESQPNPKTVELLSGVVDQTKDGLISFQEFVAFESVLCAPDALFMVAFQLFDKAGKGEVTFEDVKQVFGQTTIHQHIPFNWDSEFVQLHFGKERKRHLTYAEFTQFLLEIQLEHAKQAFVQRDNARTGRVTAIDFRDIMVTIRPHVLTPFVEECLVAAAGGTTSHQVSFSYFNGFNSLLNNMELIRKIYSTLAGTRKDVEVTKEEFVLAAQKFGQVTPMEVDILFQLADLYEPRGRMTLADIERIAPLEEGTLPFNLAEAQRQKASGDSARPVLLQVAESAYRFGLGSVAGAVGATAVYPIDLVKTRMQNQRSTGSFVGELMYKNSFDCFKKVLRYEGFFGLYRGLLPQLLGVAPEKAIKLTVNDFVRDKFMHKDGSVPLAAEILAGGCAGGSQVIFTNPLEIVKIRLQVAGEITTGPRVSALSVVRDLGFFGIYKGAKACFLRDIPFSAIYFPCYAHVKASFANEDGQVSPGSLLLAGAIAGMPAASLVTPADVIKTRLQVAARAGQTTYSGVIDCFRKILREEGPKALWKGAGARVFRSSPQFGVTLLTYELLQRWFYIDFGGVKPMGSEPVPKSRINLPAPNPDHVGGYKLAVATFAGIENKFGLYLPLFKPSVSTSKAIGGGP
Method: Osteosarcoma cell line (U2OS) were seeded at 1.5 to 2×10^6 cells per 10 cm plate. The next day (60% confluence) the cells were incubated with 4 mM of L-Glutamine (ALPHA-15N, 98%; Cat. Number: NLM-1016-1; Cambridge Isotope Laboratories) in the presence of either control (medium only) or one of compounds 1, 2, or 3 (at a concentration range between 10-100 μM), for 24 hours. Compound “1”=D-Glutamic acid; compound “2”=L-glutamic acid-5-methyl ester; “compound “3”=L-glutamic acid-gamma-benzyl ester. Compounds 1-3 are commercially available and were bought from Sigma Aldrich. Subsequently, cells were washed with ice-cold saline, lysed with 50% methanol in water and quickly scraped followed by three freeze-thaw cycles in liquid nitrogen. The insoluble material was pelleted in a cooled centrifuge (4° C.) and the supernatant was collected for consequent GC-MS analysis. Samples were dried under air flow at 42° C. using a Techne Dry-Block Heater with sample concentrator (Bibby Scientific) and the dried samples were treated with 40 μl of a methoxyamine hydrochloride solution (20 mg ml^−1 in pyridine) at 37° C. for 90 minutes while shaking followed by incubation with 70 μl N,O-bis (trimethylsilyl) trifluoroacetamide (Sigma) at 37° C. for an additional 30 minutes.
GC-MS analysis used a gas chromatograph (7820AN, Agilent Technologies) interfaced with a mass spectrometer (5975 Agilent Technologies). An HP-5 ms capillary column 30 m×250 μm×0.25μm (19091S-433, Agilent Technologies) was used. Helium carrier gas was maintained at a constant flow rate of 1.0 ml min −1. The GC column temperature was programmed from 70 to 150° C. via a ramp of 4° C. min −1, […] via a ramp of 9° C. min −1, 215-300° C. via a ramp of 25° C. min −1 and maintained at 300° C. for an additional 5 minutes. The MS was by electron impact ionization and operated in full-scan mode from m/z=30-500. The inlet and MS transfer line temperatures were maintained at 280° C., and the ion source temperature was 250° C. Sample injection (1 μl) was in splitless mode.
Specifically, Aspartate at a mass of M+1 is a metabolite that comes out of the mitochondria via Citrin.

[3] = system: U2OS human osteosarcoma cell-line transduced with shASS1; assay: Crystal violet proliferation, arginine deprivation combined with drug treatments; assay type: cell-based
Method: Cells were seeded in 12-well plates at 70,000 cells/well in a triplicate. Time 0 was calculated as the time the cells became adherent, which was after about 6 hours from plating. For each time point, cells were washed with PBS X1 and fixed in 4% PFA (in PBS). Cells were then stained with 0.1% Crystal Violet (Catalog #: C0775, Sigma-Aldrich) for 20 minutes (1 ml per well) and washed with water. Cells were then incubated with 10% acetic acid for 20 minutes with shaking. Extract was then diluted 1:4 in water and absorbance was measured at 590 nm every 24 hours.
U2OS human osteosarcoma cell-line was seeded in 6-well plates at 80,000 cells/well. The following day, cells were treated with either 100 nM Rapamycin (#R0395, Sigma-Aldrich) or with 10 μM 5FU (#F6627, Sigma-Aldrich) in regular medium, with 10% dialyzed FCS-arginine-free-RPMI (Catalogue No. 06-1104-34-1A, Biological Industries, Kibbutz beit-haemek, Israel), or with both arginine depleted medium and one of these drugs. Rapamycin and 5FU were renewed into the medium every day, whereas fresh arginine-free medium was supplemented twice a week.

Citrin [4] = target: T1, Citrin; details: at 1 about mM; cited from earlier work

Compound: 5′-GTATCCTATCGATCTTGTA-3′ (expressed or natural sequence) [sh909]
- citrin protein production (Western blot) (Citrin [1]): no production of citrin

Compound: N[C@@H](CCC(=O)OCc1ccccc1)C(=O)O [Compound 3, L-glutamic acid-gamma-benzyl ester]
- Aspartate M+1 relative to control (Citrin [2]): inhibited
- Uracil M+1 inhibition (Citrin [2]): ~35%

Compound: O=c1[nH]cc(F)c(=O)[nH]1 [5FU, Fluorouracil]
- proliferation, drug together with arginine depleted medium ([3]; U2OS shASS1, arginine depleted medium plus 100 nM Rapamycin or 10 μM 5FU): significant additive beneficial effect
- proliferation, isolated drug treatment ([3]; U2OS shASS1, complete medium, 100 nM Rapamycin or 10 μM 5FU): more beneficial than Rapamycin

Compound: 5′-TTAAGAAAGTGCTACGCTA-3′ (expressed or natural sequence) [sh901]
- citrin protein production (Western blot) (Citrin [1]): no production of citrin

Compound: COC(=O)CC[C@H](N)C(=O)O [Compound 2, L-glutamic acid-5-methyl ester]
- Uracil M+1 inhibition (in words) (Citrin [2]): inhibited

Compound: N[C@H](CCC(=O)O)C(=O)O [Compound 1, D-Glutamic acid]
- Uracil M+1 inhibition (in words) (Citrin [2]): inhibited

Compound: CCN1C(=O)C=CC1=O [N-ethylmaleimid]
- inhibition of citrin in vitro (Citrin [4]): about 50%
